# In patent US9399647B2, “Proteasome activity modulating compounds” (Proteostasis Therapeutics, Inc., priority 2012, dated 2016):
# Molecular target: USP14 (Homo sapiens, UniProt P54578)
# Assay: USP14 inhibition assay
# Format: biochemical
# Settings: average value from three experimental determinations; read-out: USP14 IC50
# Source text: The IC50 values in the Table below represent the average value from three experimental determinations.
# These IC50 values represent the average value from three experimental determinations.
# Chain of USP14 (P54578 whole entry): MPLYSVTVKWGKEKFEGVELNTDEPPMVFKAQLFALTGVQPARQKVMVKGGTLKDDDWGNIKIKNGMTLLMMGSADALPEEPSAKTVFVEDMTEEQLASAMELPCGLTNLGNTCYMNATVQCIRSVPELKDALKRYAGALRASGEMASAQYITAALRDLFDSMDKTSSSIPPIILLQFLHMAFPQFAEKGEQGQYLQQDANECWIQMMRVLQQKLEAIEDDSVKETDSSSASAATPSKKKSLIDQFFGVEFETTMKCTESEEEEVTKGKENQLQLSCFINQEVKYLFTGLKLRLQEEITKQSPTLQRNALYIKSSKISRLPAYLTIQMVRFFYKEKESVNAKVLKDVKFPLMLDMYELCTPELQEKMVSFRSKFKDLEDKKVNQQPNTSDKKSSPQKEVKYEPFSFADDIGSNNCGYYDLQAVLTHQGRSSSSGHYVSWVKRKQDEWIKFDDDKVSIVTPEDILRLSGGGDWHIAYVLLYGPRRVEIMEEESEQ
# Chain of USP14 (Q13200 whole entry partner): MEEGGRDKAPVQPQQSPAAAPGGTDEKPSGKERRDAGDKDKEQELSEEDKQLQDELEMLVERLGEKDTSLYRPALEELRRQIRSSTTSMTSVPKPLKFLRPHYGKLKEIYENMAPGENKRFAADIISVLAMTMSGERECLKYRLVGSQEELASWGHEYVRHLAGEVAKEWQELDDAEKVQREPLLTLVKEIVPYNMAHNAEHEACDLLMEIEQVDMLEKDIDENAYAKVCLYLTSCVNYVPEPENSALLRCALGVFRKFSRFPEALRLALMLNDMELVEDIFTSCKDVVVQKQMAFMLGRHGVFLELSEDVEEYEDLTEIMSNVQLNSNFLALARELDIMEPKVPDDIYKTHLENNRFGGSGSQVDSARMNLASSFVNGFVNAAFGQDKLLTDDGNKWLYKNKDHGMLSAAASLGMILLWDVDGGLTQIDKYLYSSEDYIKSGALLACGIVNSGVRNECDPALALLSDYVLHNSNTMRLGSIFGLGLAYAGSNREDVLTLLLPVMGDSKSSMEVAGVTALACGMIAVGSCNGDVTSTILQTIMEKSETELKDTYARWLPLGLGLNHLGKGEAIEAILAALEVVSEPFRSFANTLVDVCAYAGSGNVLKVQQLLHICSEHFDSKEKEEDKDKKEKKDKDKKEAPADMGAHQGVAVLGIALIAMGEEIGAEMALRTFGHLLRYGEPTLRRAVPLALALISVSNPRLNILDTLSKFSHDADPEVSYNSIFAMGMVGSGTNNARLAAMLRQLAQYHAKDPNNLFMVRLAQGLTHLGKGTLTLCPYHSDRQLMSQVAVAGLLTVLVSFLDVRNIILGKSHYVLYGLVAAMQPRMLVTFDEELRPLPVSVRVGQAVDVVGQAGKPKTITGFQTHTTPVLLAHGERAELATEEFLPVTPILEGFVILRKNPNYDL
# Chain of USP14 (P35998 whole entry partner): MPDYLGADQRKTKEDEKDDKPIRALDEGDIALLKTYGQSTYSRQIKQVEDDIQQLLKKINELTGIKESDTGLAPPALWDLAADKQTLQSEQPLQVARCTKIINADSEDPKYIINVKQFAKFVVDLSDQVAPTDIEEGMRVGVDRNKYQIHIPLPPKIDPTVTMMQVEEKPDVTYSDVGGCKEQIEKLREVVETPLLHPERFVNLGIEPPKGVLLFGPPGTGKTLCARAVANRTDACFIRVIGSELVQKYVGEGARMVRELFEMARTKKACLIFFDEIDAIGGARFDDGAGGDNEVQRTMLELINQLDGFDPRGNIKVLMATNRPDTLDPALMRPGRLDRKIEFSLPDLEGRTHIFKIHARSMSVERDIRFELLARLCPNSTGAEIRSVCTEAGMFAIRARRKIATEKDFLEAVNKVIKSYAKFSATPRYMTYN
row,SMILES,IC50 [nM]
1,"COCc1nc(N(C)C2CC2)c2c3c(sc2n1)CCCC3 [Compound 4, Cyclopropyl-(2-methoxymethyl-5,6,7,8-tetrahydro-benzo[4,5]thieno[2,3-d]pyrimidin-4-yl)-methyl-amine]",7500
2,"CNC(=O)Cc1nc(N(C)C2CC2)c2c3c(sc2n1)CCCC3 [Compound 1, 2-(4-(Cyclopropyl(methyl)amino)-5,6,7,8-tetrahydrobenzo[4,5]thieno[2,3-d]pyrimidin-2-yl)-N-methylacetamide]",1100
3,"CN(C)C(=O)Cc1nc(N(C)C2CC2)c2c3c(sc2n1)CCCC3 [Compound 3, 2-(4-(Cyclopropyl(methyl)amino)-5,6,7,8-tetrahydrobenzo[4,5]thieno[2,3-d]pyrimidin-2-yl)-N,N-dimethylacetamide]",500

# Same assay, conditions: average value from three experimental determinations; reported as potency bands; read-out: IC50 (USP14 inhibition)
row,SMILES,IC50 [nM]
1,"CN(c1nc(CC(=O)N2CC[C@@H](C(C)(C)O)C2)nc2sc3c(c12)CCCC3)C1CC1 [Compound 37, 2-[4-(Cyclopropyl-methyl-amino)-5,6,7,8-tetrahydro-benzo[4,5]thieno[2,3-d]pyrimidin-2-yl]-1-[(R)-3-(1-hydroxy-1-methyl-ethyl)-pyrrolidin-1-yl]-ethanone]",< 1000
2,"CN(c1nc(CC(=O)N2CCCCC2)nc2sc3c(c12)CCCC3)C1CC1 [Compound 26, 2-[4-(Cyclopropyl-methyl-amino)-5,6,7,8-tetrahydro-benzo[4,5]thieno[2,3-d]pyrimidin-2yl]-1-piperidin-1-yl-ethanone]",1000 to 5000
3,"CC(=O)N1CCN(C(=O)Cc2nc(N(C)C3CC3)c3c4c(sc3n2)CCCC4)CC1 [Compound 13, 1-(4-Acetyl-piperazin-1-yl)-2-[4-(Cyclopropyl-methyl-amino)-5,6,7,8-tetrahydro-[1]benzothieno[2,3-d]pyrimidin-2-yl]-ethanone]",< 1000
4,"CN1CCN(C(=O)Cc2nc(N(C)C3CC3)c3c4c(sc3n2)CCCC4)CC1 [Compound 10, 2-[4-(Cyclopropyl-methyl-amino)-5,6,7,8-tetrahydro-benzo[4,5]thieno[2,3-d]pyrimidin-2-yl]-1-(4-methyl-piperazin-1-yl)-ethanone]",< 1000
5,CN(c1nc(CC(=O)NCCc2ccncc2)nc2sc3c(c12)CCCC3)C1CC1 [Compound 22],> 5000
6,"CN(c1nc(CC(=O)C(F)(F)F)nc2sc3c(c12)CCCC3)C1CC1 [Compound 51, 3-[4-(Cyclopropyl-methyl-amino)-5,6,7,8-tetrahydrobenzo[4,5]thieno[2,3-d]pyrimidin-2-yl]-1,1,1-trifluoro-propan-2-one]",1000 to 5000
7,"CN(C)C(=O)CCc1nc(N(C)C2CC2)c2c3c(sc2n1)CCCC3 [Compound 48, 3-[4-(Cyclopropyl-methyl-amino)-5,6,7,8-tetrahydro-[1]benzothiopheno[2,3-d]pyrimidin-2-yl]-N,N-dimethyl-propionamide]",1000 to 5000
8,"CCNC(=O)Cc1nc(N(C)C2CC2)c2c3c(sc2n1)CCCC3 [Compound 34, 2-[4-(Cyclopropyl-methyl-amino)-5,67,8-tetrahydro-benzo[4,5]thieno[2,3-d]pyrimidin-2-yl]-N-ethyl-acetamide]",1000 to 5000
9,"CC(C)NC(=O)Cc1nc(N(C)C2CC2)c2c3c(sc2n1)CCCC3 [Compound 28, 2-[4-(Cyclopropyl-methyl-amino)-5,6,7,8-tetrahydro-benzo[4,5]thieno[2,3-d]pyrimidin-2-yl]-N-isopropyl-acetamide]",1000 to 5000
10,"CN(c1nc(CC(=O)N2CC[C@H](C(C)(C)O)C2)nc2sc3c(c12)CCCC3)C1CC1 [Compound 20, (S)-2-(4-(Cyclopropyl(methyl)amino)-5,6,7,8-tetrahydrobenzo[4,5]thieno[2,3-d]pyrimidin-2-yl)-1-(3-(2-hydroxypropan-2-yl)pyrrolidin-1-yl)ethanone]",< 1000
11,"CN(c1nc(CC(=O)N2CCCC2CO)nc2sc3c(c12)CCCC3)C1CC1 (stereo not drawn) [Compound 39, 2-[4-(Cyclopropyl-methyl-amino)-5,6,7,8-tetrahydro-benzo[4,5]thieno[2,3-d]pyrimidin-2-yl]-1-(2-hydroxymethyl-pyrrolidin-1-yl)-ethanone]",< 1000
12,"CN(c1nc(CC(=O)N2CCC(F)(F)CC2)nc2sc3c(c12)CCCC3)C1CC1 [Compound 11, 2-[4-(Cyclopropyl-methyl-amino)-5,6,7,8-tetrahydro-benzo[4,5]thieno[2,3-d]pyrimidin-2-yl]-1-(4,4-difluoro-piperidin-1-yl)-ethanone]",1000 to 5000
13,"CN(c1nc(CC(=O)N2CCOCC2)nc2sc3c(c12)CCCC3)C1CC1 [Compound 9, 2-[4-(Cyclopropyl-methyl-amino)-5,6,7,8-tetrahydro-benzo[4,5]thieno[2,3-d]pyrimidin-2-yl]-1-morpholin-4-yl-ethanone]",< 1000
14,"CN(c1nc(CO)nc2sc3c(c12)CCCC3)C1CC1 [Compound 49, [4-(Cyclopropyl-methyl-amino)-5,6,7,8-tetrahydro-benzo[4,5]thieno[2,3-d]pyrimidin-2-yl]-methanol]",1000 to 5000
15,CN(c1nc(CC(=O)NCc2ccncc2)nc2sc3c(c12)CCCC3)C1CC1 [Compound 16],1000 to 5000
16,"CN(c1nc(CC(=O)N2CCC(CO)C2)nc2sc3c(c12)CCCC3)C1CC1 (stereo not drawn) [Compound 36, 2-[4-(Cyclopropyl-methyl-amino)-5,6,7,8-tetrahydro-benzo[4,5]thieno[2,3-d]pyrimidin-2-yl]-1-(3-hydroxymethyl-pyrrolidin-1-yl)-ethanone]",< 1000
17,"CN(c1nc(CC(=O)N2CCC(S(C)(=O)=O)C2)nc2sc3c(c12)CCCC3)C1CC1 (stereo not drawn) [Compound 25, 2-[4-(Cyclopropyl-methyl-amino)-5,6,7,8-tetrahydro-benzo[4,5]thieno[2,3-d]pyrimidin-2yl]-1-(3-methanesulfonyl-pyrrolidin-1-yl)-ethanone]",< 1000

row,SMILES,IC50 [nM]
1,"CN(C)C(=O)Cc1nc(N2CCC2)c2c3c(sc2n1)CCCC3 [Compound 44, 2-(4-(Azetidin-1-yl)-5,6,7,8-tetrahydrobenzo[4,5]thieno[2,3-d]pyrimidin-2-yl)-N,N-dimethylacetamide]",> 5000
2,"CN(C)C(=O)Cc1nc(N2CCCC2)c2c3c(sc2n1)CCCC3 [Compound 42, N,N-Dimethyl-2-(4-pyrrolidin-1-yl-5,6,7,8-tetrahydro-benzo[4,5]thieno[2,3-d]pyrimidin-2-yl)-acetamide]",> 5000
3,"CN(c1nc(CC(=O)N2CCC(O)CC2)nc2sc3c(c12)CCCC3)C1CC1 [Compound 27, 2-[4-(Cyclopropyl-methyl-amino)-5,6,7,8-tetrahydro-benzo[4,5]thieno[2,3-d]pyrimidin-2-yl]-1-(4-hydroxy-piperidin-1-yl)-ethanone]",< 1000
4,CN(c1nc(CC(=O)NCc2cccnc2)nc2sc3c(c12)CCCC3)C1CC1 [Compound 19],1000 to 5000
5,"CN(c1nc(CCC(=O)O)nc2sc3c(c12)CCCC3)C1CC1 [Compound 47, 3-[4-(Cyclopropyl-methyl-amino)-5,6,7,8-tetrahydro-[1]benzothiopheno[2,3-d]pyrimidin-2-yl]-propionic acid]",1000 to 5000
6,"CN(c1nc(CC(=O)N2CCC(F)(F)C2)nc2sc3c(c12)CCCC3)C1CC1 [Compound 7, 2-[4-(Cyclopropyl-methyl-amino)-5,6,7,8-tetrahydro-benzo[4,5]thieno[2,3-d]pyrimidin-2-yl]-1-(3,3-difluoro-pyrrolidin-1-yl)-ethanone]",1000 to 5000
7,"CN(c1nc(CC(=O)N2CCCC(O)C2)nc2sc3c(c12)CCCC3)C1CC1 (stereo not drawn) [Compound 33, 2-[4-(Cyclopropyl-methyl-amino)-5,6,7,8-tetrahydro-benzo[4,5]thieno[2,3-d]pyrimidin-2-yl]-1-(3-hydroxy-piperidin-1-yl)-ethanone]",< 1000
8,CN(c1nc(CC(=O)Nc2ccon2)nc2sc3c(c12)CCCC3)C1CC1 [Compound 21],1000 to 5000
9,"CCOC(=O)Cc1nc(N(C)C(C)C)c2c3c(sc2n1)CCCC3 [Compound 41, [4-(Isopropyl-methyl-amino)-5,6,7,8-tetrahydro-benzo[4,5]thieno[2,3-d]pyrimidin-2-yl]-acetic acid ethyl ester]",> 5000
10,"CN(c1nc(CC(=O)N2CC(O)C2)nc2sc3c(c12)CCCC3)C1CC1 [Compound 12, 2-(4-(Cyclopropyl(methyl)amino)-5,6,7,8-tetrahydrobenzo[4,5]thieno[2,3-d]pyrimidin-2-yl)-1-(3-hydroxyazetidin-1-yl)ethanone]",< 1000
11,"CN(c1nc(CC(=O)N2CCC(N3CCOCC3)CC2)nc2sc3c(c12)CCCC3)C1CC1 [Compound 32, 2-[4-(Cyclopropyl-methyl-amino)-5,6,7,8-tetrahydro-benzo[4,5]thieno[2,3-d]pyrimidin-2-yl]-1-(4-morpholin-4-yl-piperidin-1-yl)-ethanone]",< 1000
12,"CN(c1nc(CC(=O)N2CC[C@H](N(C)C)C2)nc2sc3c(c12)CCCC3)C1CC1 [Compound 24, 2-[4-(Cyclopropyl-methyl-amino)-5,6,7,8-tetrahydrobenzo[4,5]thieno[2,3-d]pyrimidin-2yl]-1-((S)-3-dimethylamino-pyrrolidin-1-yl)-ethanone]",< 1000
13,"CN(c1nc(CC(=O)N2CCCC2)nc2sc3c(c12)CCCC3)C1CC1 [Compound 6, 2-[4-(Cyclopropyl-methyl-amino)-5,6,7,8-tetrahydro-benzo[4,5]thieno[2,3-d]pyrimidin-2-yl]-1-pyrrolidin-1-yl-ethanone]",< 1000
14,"CN(c1nc(CC(=O)N2CCCC2C(N)=O)nc2sc3c(c12)CCCC3)C1CC1 (stereo not drawn) [Compound 38, 1-(2-(4-(Cyclopropyl(methyl)amino)-5,6,7,8-tetrahydrobenzo[4,5]thieno[2,3-d]pyrimidin-2-yl)acetyl)pyrrolidine-2-carboxamide]",< 1000
15,CN(c1nc(CC(=O)NCCc2cccnc2)nc2sc3c(c12)CCCC3)C1CC1 [Compound 23],1000 to 5000
16,"CN(c1nc(CC(=O)N2CCC(O)C2)nc2sc3c(c12)CCCC3)C1CC1 (stereo not drawn) [Compound 29, 2-[4-(Cyclopropyl-methyl-amino)-5,6,7,8-tetrahydro-benzo[4,5]thieno[2,3-d]pyrimidin-2-yl]-1-(3-hydroxy-pyrrolidin-1-yl)-ethanone]",< 1000
